The test system of one series is Col1-α1. Description: Real-time PCR, TGF-β-stimulated LTC-14 cells: Col1-α1. In kind it is cell-based, rat. The note with it: Rhein at 1, 10 and 100 μM; TGF-β 5 ng/mL. The text has this:
(§1) The synthesized cDNA template was applied to amplifications with rat-specific primers for Tgf-β1, Acta2, Col1-α1 and Mmp2 in a real-time PCR sequencer. Expression of the gene of interest was expressed as a Ct value and normalized to the internal control Gapdh. […] After amplifications by real-time PCR, expression of the gene of interest was expressed as a Ct value and normalized to the internal control Gapdh.
(In general: In qPCR the cycle at which signal appears reflects the starting amount.)

Series [1] is described as follows: Body weights and tolerability of mice given Rhein orally. Type of series: in vivo, C57BL6 mice. The protocol:
(§2) C57BL6 mice at age of 6 to 8 weeks with body weight in the range of 20 to 24 grams were used in these experiments. Mice were randomly assigned into 5 groups. Control group received saline injections only; Rhein group was fed with Rhein (≧98% pure) dissolved in 0.5% sodium carboxymethyl cellulose (Sigma, USA) in a single dose of 0.4 mL at 50 mg/kg/day for 6 weeks; Cerulein group received 6 cerulein injections at 50 μg/kg three times a week for 6 weeks; Cer+Rh 6w group received cerulein injections same as Cerulein group plus oral gavage of a single dose of Rhein at 50 mg/kg/day from the first day of experimental period till the end in a total of 6 weeks; Cer+Rh 3w group received cerulein injections same as Cerulein group and Cer+Rh 6w group, but was given with Rhein at 50 mg/kg/day starting the first day of week 4 till the end of experiment in a total of 3 weeks (n=6/group). Upon scarification, pancreata were immediately removed, weighed, trimmed from fat and fixed in 4% paraformaldehyde-phosphate buffered saline (PBS) overnight at 4° C. Samples were then processed, embedded in paraffin wax, sectioned and subjected to Hematoxylin-eosin (H & E) staining or Sirius Red staining Levels of TNF-α· in animal serum samples were determined using commercial ELISA kits. Proteins extracted from pancreatic tissues were subjected to Western blotting analyses.

Series [2] is described as follows: Pancreatic weight and H&E histology, cerulein-induced chronic pancreatitis mice. In kind it is in vivo, C57BL6 mice. The method, then: as §2
For series [3], the system named is α-SMA. Briefly: α-SMA expression in pancreatic tissues (immunofluorescence, Western blotting), cerulein-treated mice. Type of series: in vivo, C57BL6 mice. Particulars: Rhein oral 50 mg/kg/day for 6 weeks. The protocol: as §2
(A western blot detects proteins with antibodies after separation by electrophoresis.)

The subject of series [4] is α-SMA. Briefly: Immunofluorescence assay for α-SMA in TGF-β-stimulated LTC-14 cells. Type of series: cell-based, rat. The note with it: TGF-β 5 ng/mL, Rhein 10 μM. The method, then: To study the effect of Rhein on TGF-β induced expression of fibrotic filament formation, LTC-14 cells were grown on poly-L-lysine coated glass coverslips at a density of 1×10^5 in a 24-well plate pre-incubated with TGF-β (5 ng/mL) for 24 hours before the treatment with or without Rhein (10 μM). At the time of harvest, cells were subjected to immunofluorescence assay for α-SMA immunoreactivities.

The test system of the next series is collagen. Description: Sirius Red staining of collagenous proteins in pancreas of CP mice. In kind it is in vivo, C57BL6 mice. The protocol:
as §2

A further series relates to fibronectin 1 (FN1). Description: Western blotting of fibronectin in pancreatic tissues of CP mice. In kind it is in vivo, C57BL6 mice. Particulars: CP mice treated with Rhein vs non-Rhein-treated CP mice. The method, then:
as §2

The subject of series [5] is LTC-14 cells. Briefly: TGF-β induced transformation of PSCs to myofibroblast-like cells (light microscope). Type of series: cell-based, rat. The note with it: TGF-β 5 ng/mL, Rhein 10 μM. The method, then:
To study the effect of Rhein on TGF-β induced transformation of PSCs to myofibroblast-like cells, LTC-14 cells were grown at a density of 1×10^5 in a 24-well plate, pre-incubated with TGF-β (5 ng/mL) for 24 hours and treated with or without Rhein (10 μM). At the time of harvest, cells were examined with morphological alterations under a light microscope.

In series [6] the test system is LTC-14 cells. In kind it is cell-based. The method, then:
LTC-14 cells were cultured at 37° C. under a humidified condition of 95% air and 5% CO2 in IMDM supplemented with 10% fetal bovine serum (FBS). Cells used in all the experiment were among passages 9 to 22. LTC-14 cells were seeded at a density of 1×10^4/well in a 96-well plate, and incubated with different concentrations of Rhein (dissolved in DMSO) for 24 hours. MTT reagent was added to the cells at the end of the 24-hour treatment period. After a 3-hour reaction time, MTT products were dissolved in DMSO and OD at 570 nm was taken.

For a further series, the system named is Fn1. Briefly: Expression of Fn1 in TGF-β-stimulated LTC-14 cells. Type of series: cell-based, rat. The note with it: recombinant TGF-β.
The test system of a further series is TNF-α. Description: Serum TNF-α by ELISA, cerulein-induced chronic pancreatitis mice. Type of series: in vivo, C57BL6 mice. The protocol: as §2
Another series has as its system Acta2. Briefly: Real-time PCR, TGF-β-stimulated LTC-14 cells: Acta2. In kind it is cell-based, rat. Particulars: Rhein at 1, 10 and 100 μM; TGF-β 5 ng/mL.
Text: as §1

The next series relates to Tgf-β1. Description: Real-time PCR, TGF-β-stimulated LTC-14 cells: Tgf-β1. Type of series: cell-based, rat. The note with it: Rhein at 1, 10 and 100 μM; TGF-β 5 ng/mL.
Text: as §1

Setting [7] is: Rhein group: 50 mg/kg/day oral for 6 weeks, no cerulein.

Each structure is given as a SMILES string. Marks after values point to notes of the source that are not given here.

As to `O=C(O)c1cc(O)c2c(c1)C(=O)c1cccc(O)c1C2=O` [Rhein, 9,10-Dihydro-4,5-dihydroxy-9,10-dioxo-2-anthracenecarboxylic acid], the “TGF-β-elevated mRNA expression level of Col1-α1” value in the series with Col1-α1 is given as “significantly repressed”. Further, the “Body wt (g), Mean” value in [1] (Cer + Rh 3 wk: cerulein injections plus Rhein 50 mg/kg/day from week 4, 3 weeks) is on record as 24.07* g; in series [1] (Cer + Rh 6 wk: cerulein injections plus Rhein 50 mg/kg/day oral gavage for 6 weeks), 23.98* g; in series [1] (setting [7]), 26.10 g. Further, the adverse effects entry in series [1] (oral administration, animal study) is “no adverse effects”. In addition, the “histology of pancreatic tissues (acinar loss, lymphocyte infiltration, fibrosis)” value in series [2] (CP mice, Rhein oral 50 mg/kg/day, H&E) was “less acinar loss (FIG. 1), lymphocyte infiltration and fibrosis”. In addition, the pancreatic weight entry in [2] (cerulein-induced pancreatitis mice, vs Cerulein group) is “significant restoration of pancreatic weight”. For the same compound, the “expression of α-SMA in the pancreatic tissues” value with α-SMA [3] is listed as “significantly inhibits”. For the same compound, the “α-SMA expression (immunofluorescent staining)” value with α-SMA [4] was “remarkably suppresses”. The “amounts of collagenous protein” value in the series with collagen is “notably reduced”. In the series on fibronectin 1 (FN1), the “protein expression levels of fibronectin” value is listed as “remarkably decreased”. For the same compound, the “transformation of LTC-14 cells into myofibroblast-like phenotype” value in the series with LTC-14 cells [5] is reported as “represses the transformation”. Moreover, the PSC proliferation result in the series on LTC-14 cells [6] (in vitro, dose-dependent) was “suppress PSC proliferation”. In addition, the “LD50 (cytotoxicity)” value with LTC-14 cells [6] (rat, 24 h) is reported as “approximately 130 μM”. In addition, the “TGF-β-stimulated expression level of Fn1” value in the series on Fn1 is reported as “suppresses”. Further, the “TNF-α (ng/mL), Mean” value in the series with TNF-α (Cer + Rh 3 wk: cerulein plus Rhein 50 mg/kg/day from week 4, 3 weeks) is 32.52# ng/mL; in the series on TNF-α (Cer + Rh 6 wk: cerulein plus Rhein 50 mg/kg/day for 6 weeks) it was 31.18# ng/mL; with TNF-α (setting [7]) it was 14.43 ng/mL. Also, the “TGF-β-elevated mRNA expression level of Acta2” value in the series on Acta2 is “significantly repressed”. Moreover, the “TGF-β-elevated mRNA expression level of Tgf-β1” value in the series on Tgf-β1 is “significantly repressed”.
